Data taken from patent US20160374370A1, “BEVERAGE COMPRISING FERROUS PICOLINATE” (NESTEC S.A., priority 2013, published 2016).

Assay: Colour change in iron fortified strawberry fermented milk beverages (CIELAB colorimetry)
Format: physicochemical
Conditions: for ΔEab* on addition / ΔEab* after heat treatment: colour difference vs beverage with no iron salts, approx. 2.1 mg iron per 100 g; for ΔEab* on addition: fermented milk beverage containing 2.1% strawberry, stirred under argon 20 minutes; for ΔEab* after heat treatment: heat treated at 95° C. for 2 minutes, 2.1% strawberry fermented milk beverage
Procedure: Ferrous picolinate was prepared according to the procedure of U.S. Pat. No. 4,315,927 Example 3. A fermented milk beverage containing 2.1% strawberry was iron fortified by the addition of ferrous sulphate (Dr Paul Lohmann™) (Sample A) or ferrous picolinate (Sample B). The amount of the ferrous salts were chosen to provide approximately 2.1 mg iron per 100 g fermented milk beverage. Each ferrous salt was added to the fermented milk beverage and stirred under argon for 20 minutes. A further sample without iron fortification was also prepared in the same manner. Colour measurements were performed in 1×1 cm polystyrene cuvettes using an X-Rite ColorEye 7000A colorimeter. The colorimeter was set up with a D65 light source, 10 degree observer angle and with specular component included. The colour difference between the beverage with no iron salts and the iron fortified beverages was measured for each ferrous salt and expressed as ΔEab* using the CIELAB colour scale.
The fermented milks were then heat treated at 95° C. for 2 minutes. Colour measurements were performed in the same manner as before. The colour difference between the beverage with no iron salts and the iron fortified beverages was measured for each ferrous salt and expressed as ΔEab* using the CIELAB colour scale.

Compound: O=S(=O)([O-])[O-].[Fe+2] [FeSO4 × H20, ferrous sulphate, reference compound]
- ΔEab* on addition: 0.84
- ΔEab* after heat treatment: 2.80

Compound: ferrous picolinate
- colour compared with the beverage with no added iron (both after simple addition of the salts and after heat treatment, compared with ferrous sulphate): closer in colour to the beverage with no added iron than the beverage fortified with ferrous sulphate
- ΔEab* on addition: 0.36
- ΔEab* after heat treatment: 1.66
